One series relates to DRG sensory neurons. Kind of series: Ca2+ imaging in cultured DRG sensory neurons. The series is classed as cell-based, mouse. The note with it: inhibitor 10 μM. How it is done:
Primary mouse sensory neurons were cultured following previous protocol (Chen et al. Pain 2014, 155, 2662-2672). DRGs from 2-3 weeks old male WT, Trpv1 KO, and Trpa1 KO mice were dissected and digested with 1 mg/mL collagenase (Worthington, CSL1) and 5 mg/mL dispase (Invitrogen, Waltham, MA) for 1 h, then triturated. The resulting cell suspension was filtered through a 70 μm cell strainer (BD Biosciences, Bedford, MA) to remove debris. Neurons were cultured in DH10 medium (1:1 DMEM:Hams-F12, Invitrogen, Waltham, MA) with 10% FBS (Sigma, St. Louis, MO), 100 U/mL penicillin and 100 μg/mL streptomycin (Gibco, Gaithersburg, MD) and 50 ng/mL nerve growth factor (NGF; USBiological) on coverslips coated with poly-D-lysine and laminin (Invitrogen, Waltham, MA), and incubated with 5% CO2 at 37° C. Ca^2+ imaging was performed next day after culture.
In vitro and ex vivo Ca^2+ imaging. Routine procedures were followed for Ca^2+ imaging in cultured DRG sensory neurons, epidermal keratinocytes, and HEK cells (Chen et al. J. Biol. Chem. 2016, 291, 10252-10262; Chen et al. Pain 2014, 155, 2662-2672). […] Ratios of emissions were acquired at 0.5 Hz. ΔR/R0 was determined as the fraction of the increase of a given ratio over baseline ratio divided by baseline ratio. […]

In a further series the test system is mice. Briefly: Effect of inhibitor pretreatment on LPA-, LPC- or miR-146a-induced scratching behavior. It is filed as in vivo, mouse. The settings on record: for effect on LPC-induced itch, i.p. injection / effect on miR-146a-induced itch, i.p. injection: i.p.: SB366791 2 mg/kg, HC030031 30 mg/kg; for effect on LPC-induced itch, i.t. injection / effect on miR-146a-induced itch, i.t. injection: i.t. 30 μg. The protocol: Behavioral assessment. Mice were shaved at the dorsal neck 1 d before experiments. […] After injections, mice were immediately placed back to the chamber, and the scratching behavior was recorded by a Panasonic video camera for 30 min. Hind limb scratching behavior directed toward the injected area at the nape of neck was observed. One scratch is defined as a lifting of the hind limb toward the injection site and then a replacing of the limb back to the floor, regardless of how many scratching strokes take place between those two movements. Behavioral analysis was conducted by observers blinded to genotype.
Control animals received the same volume of vehicles.
Lumbar puncture was made with a 30G-needle and drugs at 5 μL of volume were delivered. Scratching behavior assay was started approximately 2 weeks after resiniferatoxin treatment.

The subject of the next series is DRG neurons. Briefly: Ex vivo Ca2+ imaging of GCaMP3-expressing DRG explants. It is filed as cell-based, mouse. How it is done: A previously established method was followed for ex vivo Ca^2+ imaging of DRG explants (Kim et al. Neuron 2014, 81, 873-887). Intact DRGs (L4 or L5) were isolated from naïve male or female Pirt-GCaMP3 mice (2-3 months old) and equilibrated in artificial cerebrospinal fluid (ACSF) bubbled with 95% O2/5% CO2 at room temperature. After 15 min, explants were placed in a dish with 2 mL of pre-oxygenated ACSF and imaged using a Zeiss 780 upright confocal microscope (Carl Zeiss AG, Oberkochen, Germany) with 20× water immersion objective and Z-stack approach at the 488 nm wavelength. Explants were stimulated by miR-146a or miR-146a scramble. After 15 min recording, capsaicin was then applied to identify whether the miR-146a responding neurons were TRPV1 positive. […] Ca^2+ fluorescence intensity was determined using the ImageJ software (NIH, Bethesda, MD, USA). For each neuron, the pixel intensity (Ft) was assessed for each frame and the pixel intensity recorded from the first 20 frames was taken to determine the average baseline value (F0). Ca^2+ signal amplitudes are presented as ΔF/F0, which is the ratio of fluorescence difference (Ft−F0) to baseline (F0).

The test system of series [1] is extracellular release of miR-146a. Kind of series: Extracellular release of miRs from cultured mouse keratinocytes (RT-qPCR). The series is classed as cell-based. The note with it: mKC; for effect of siRNA knockdown on LPC-elicited release of miR-146a: LPC 10 μM, 10 min, siRNA 72 h, vs Scramble+LPC; for decrease of extracellular-released miR-146a: siRNA knockdown, LPC stimulation. How it is done:
Primary mouse keratinocytes were cultured following previous protocol (Chen et al. J. Biol. Chem. 2016, 291, 10252-10262). The epidermis from the back skin of newborn WT or keratinocyte-Trpv4 cKO mice was separated from the dermis by floating the skin on 0.25% trypsin (Gibco, Gaithersburg, MD) for 14-18 h at 4° C. Basal keratinocytes were separated from the cornified sheets by filtration through a […] cell strainer. Keratinocytes were plated on collagen I-coated dishes or glass coverslips and grown in EME media (Gibco, Gaithersburg, MD) containing 8% chelex (Bio-rad, Hercules, CA)-treated FBS with the final Ca^2+ adjusted to 0.05 mM, bovine pituitary extract (50 μg/mL), epidermal growth factor (5 ng/mL), and lx antibiotics/antimycotics (Gibco, Gaithersburg, MD) in a humidified incubator with 5% CO2 at 37° C. for 5-7 days until use. To knockdown Trpv4 in isolated keratinocytes from newborn keratinocyte-Trpv4 cKO mice, cells were treated with 4-OH tamoxifen at 500 nM for 72 h.
Measurement of released vesicles and extracellular miR-146a from cultured keratinocytes or sera Medium for the cultured keratinocytes was replaced with serum-free medium 2 h before LPC stimulation. […] Finally, cell-free supernatants were further purified using a Vesicular Isolation kit (Invitrogen, Waltham, MA) according to the manufacturer's instructions, with final product resuspended in ice-cold PBS. Total RNA extraction was then carried out using a Total RNA Isolation kit (Invitrogen, Waltham, MA). Enrichment for small RNAs was carried out by sequential increase in ethanol concentration and passing through glass-fiber filters. RNase free water was used to elute small RNAs in the final elution step. For human PBC sera or sera from ANIT-treated mice, RNA was isolated using Qiagen miRNeasy Plasma/Serum kit. cDNA synthesis from extracted RNAs was performed according to manufacturer's instructions (qSTAR miRNA kit, Origene). For qPCR, the stem-loop oligonucleotides specific for the following miRs are as follows: miR-146a-5p (GAGAACTGAATTCCATGGG, SEQ ID NO: 4), miR-let-7b (GAGGTAGTAGGTTGTGTGG, SEQ ID NO: 5), miR-125b-1 (CCCT GAGACCCTAACTTG, SEQ ID NO: 6), miR-203 (GTGGTTC TTGACAGTTCAAC, SEQ ID NO: 7), and miR-16-5p (AGCAGCAC GTAAATATTGGC, SEQ ID NO: 8). Primers were purchased from Integrated DNA Technologies company (Coralville, IA). qPCR reactions for each sample were run in triplicates, including no-template controls. MiR-16-5p was selected as a control due to the relative constancy of its expression in various cultured cell lines (Schwarzenbach et al. Clin. Chem. 2015, 61, 1333-1342). qPCR for this miR was performed in tandem with target miRs to determine the optimal normalization procedure. To investigate the effects of the specific TRPV4 inhibitors GSK205 or HC067047 and the specific MEK inhibitor U0126 on LPC-induced extracellular release of miR-146a, cells were incubated with the inhibitors for 15 min before stimulation. Control cells received the same volume of vehicle.
Vesicular release from cultured keratinocytes was quantified by detecting acetylcholinesterase (AChE) activity in the extracellular release fluid. (Gupta et al. Am. J. Physiol. Heart Circ. Physiol. 2007, 292, H3052-3056; Malik et al. Methods Mol. Biol. 2016, 1448, 237-248). CBQCA Protein Quantitation Kit (Molecular Probes, Eugene, OR) was used to assess the total protein amounts of each sample. Quantitation was carried out according to kit instructions (Fluorocet, Systems Biosciences, Palo Alto, CA). Briefly, vesicles were lysed to release esterase enzyme whose activity is measured using a florescence dye, excitation at 544 nm and emission at 590 nm. Fluostar Optima (BMG Labtech, Cary, NC) microplate reader was used to measure esterase activity. 500 ng protein equivalent of input was used per well. […]

The test system of series [2] is vesicular release from mKC. Briefly: Vesicular release from cultured mouse keratinocytes (AChE activity). The series is classed as cell-based. The note with it: vs Scramble+LPC. How it is done: Vesicular release from cultured keratinocytes was quantified by detecting acetylcholinesterase (AChE) activity in the extracellular release fluid. (Gupta et al. Am. J. Physiol. Heart Circ. Physiol. 2007, 292, H3052-3056; Malik et al. Methods Mol. Biol. 2016, 1448, 237-248). CBQCA Protein Quantitation Kit (Molecular Probes, Eugene, OR) was used to assess the total protein amounts of each sample. Quantitation was carried out according to kit instructions (Fluorocet, Systems Biosciences, Palo Alto, CA). Briefly, vesicles were lysed to release esterase enzyme whose activity is measured using a florescence dye, excitation at 544 nm and emission at 590 nm. Fluostar Optima (BMG Labtech, Cary, NC) microplate reader was used to measure esterase activity. 500 ng protein equivalent of input was used per well. To determine the contribution of Rab5a and Rab27a to LPC-induced miR-146a release, cells were pre-treated with the Rab5a (5′-GUAGAAUCAA GUUUCUAAUUCUGAA-3′ SEQ ID NO: 9, 5′-[…]-3′ SEQ ID NO: 10) or Rab27a (5′-AGCUAAAA CUGAGAGCUUCAAACAG-3′ SEQ ID NO: 11, 5′-[…]-3′ SEQ ID NO: 12) siRNA (IDT, Coralville, IA) for 72 h before stimulation. Control cells were treated with scramble siRNA.

Entries after “also recorded” stand apart in the source; their conditions may differ.

On to `CC(C)c1ccc(NC(=O)Cn2cnc3c2c(=O)n(C)c(=O)n3C)cc1` [HC030031], for which the “effect on miR-146a (300 nM) induced Ca2+ influx” value in the series on DRG sensory neurons is given as “not significantly altered”. In addition, in the series on mice, the “effect on LPC-induced itch, i.p. injection” value is recorded as “not significantly altered”; the “effect on miR-146a-induced itch, i.p. injection” value is “not significantly altered”; the “effect on LPC-induced itch, i.t. injection” value is given as “not significantly altered”; the “effect on miR-146a-induced itch, i.t. injection” value is given as “not significantly altered”.
Turning to `COc1cccc(NC(=O)/C=C/c2ccc(Cl)cc2)c1` [SB366791], in the series on DRG sensory neurons, the “effect on miR-146a (300 nM) induced Ca2+ influx” value was “significantly reduced”. Besides, in the series with mice, the “effect on LPC-induced itch, i.p. injection” value is reported as “significantly reduced; also recorded: significantly attenuated”; the “effect on miR-146a-induced itch, i.p. injection” value is recorded as “significantly reduced; also recorded: significantly attenuated”; the “effect on LPC-induced itch, i.t. injection” value was “significantly reduced; also recorded: significantly attenuated”; the “effect on miR-146a-induced itch, i.t. injection” value is “significantly reduced; also recorded: significantly attenuated”. In addition, the “effect on percentage of total DRG neurons responding to miR-146a (300 nM)” value in the series on DRG neurons (inhibitor 10 μM) is “significantly reduced”.
For the molecule “Rab27a siRNA: siRNA against Rab27a, SEQ ID NO: 11 and 12 (chain 1 AGCUAAAACUGAGAGCUUCAAACAG; chain 2 CUGUUUGAAGCUCUCAGUUUUAGCUUA; listed as RNA, chemistry not given here)”, in series [1], the “effect of siRNA knockdown on LPC-elicited release of miR-146a” value is “significant decrease” and the “decrease of extracellular-released miR-146a” value was approximately 40%. Moreover, the “effect of siRNA on LPC-elicited vesicular release” value in series [2] is given as “completely eliminated; also recorded: significant decrease”.
As for “Rab5a siRNA: siRNA against Rab5a, SEQ ID NO: 9 and 10 (chain 1 GUAGAAUCAAGUUUCUAAUUCUGAA; chain 2 UUCAGAAUUAGAAACUUGAUUCUACCA; listed as RNA, chemistry not given here)”, in series [1], the “effect of siRNA knockdown on LPC-elicited release of miR-146a” value is “significant decrease” and the “decrease of extracellular-released miR-146a” value is reported as approximately 40%. Besides, the “effect of siRNA on LPC-elicited vesicular release” value in series [2] was “completely eliminated; also recorded: significant decrease”.
As for `COc1cc(CNC(=O)CCCC/C=C/C(C)C)ccc1O` [capsaicin], in the series on DRG neurons (miR-146a 300 nM, capsaicin 1 μM), the “Ca2+ signal in sensory neurons following stimulation” value is given as “increased”.
